What was measured:
[1] = Interaction of nitric oxide with carriers, weight gain on bubbling NO gas (Example 2); assay type: physicochemical; settings: NO bubbled 40 hr, 25° C.
Method: In this example, six experiments were carried out to investigate the interaction of nitric oxide with three carriers (HNC 157-62, HNC 157-65, and HNC 157-69) as well as with 1,3-propanediol, using experimental conditions similar to that described for Example 1. In addition three experiments were performed to prepare carriers containing 800 ppm and 500 ppm nitric oxide. HNC 157-62 was formed of 65% Phospholipon-90G (American Lecithin Company), 18% isopropyl palmitate (Kraft Chemicals), 8% capric caprylic triglycerides (RITA Corp.), and 9% propanediol (Dupont). HNC 157-65 was formed of 65% Phospholipon-90G, 13% isopropyl palmitate, 14% capric caprylic triglycerides, 3% propanediol, and 5% dimethyl isosorbide (Croda). HNC 157-69 was formed from 65% Phospholipon-90G, 16% isopropyl palmitate, and 19% capric caprylic triglycerides.
The compositions were generally prepared as follows. Isopropyl palmitate, capric caprylic triglyceride, propanediol (for HNC 157-62 and HNC 157-65), and dimethyl isosorbide (for HNC 157-65) were mixed together and warmed to 40° C. Phospholipon-90G was then gradually added to this liquid mixture by mixing it. Phospholipon-90G is typically received as individual pellets, and is mixed into the solution until fully dissolved. The mixture was subsequently filtered through a sieve to remove any undissolved Phospholipon-90G. […]

[2] = tested on: cutaneous vascular system; assay: Laser Doppler circulation in five human subjects, 10,000 ppm NO formulation (Example 8); assay type: in vivo; settings: positive control formulation containing 0.1% methyl nicotinate
Text: This example illustrates delivery of nitric oxide formulations to five human subjects, using procedures and formulations similar to those discussed in Example 5. Each person served as their own control for the testing. A Moor Instruments Laser Doppler was used to determine circulation. […] The formulations used produce positive, almost immediate results when applied to the skin which, in these studies, was manifested by vasodilatation of the cutaneous vascular system.
For each subject, the following creams were applied: a negative control formulation (containing no NO), 0.010 gram of a 10,000 ppm NO formulation, 0.020 gram of a 10,000 ppm NO formulation, and a positive control formulation containing 0.1% methyl nicotinate. The formulations were prepared using procedures similar to those discussed in Example 1.

[3] = tested on: microcirculation of the skin; assay: Laser Doppler capillary blood flow in human female subjects, 10,000 ppm NO in closed chamber (Example 5); assay type: in vivo; settings: applied to skin at 1/10% in alcohol
Text: The formulation used in these studies contained nitric oxide dispersed in a lipid matrix. […] Nitric oxide is a very rapid acting molecule, and these studies used a system that employed laser Doppler with a covered chamber. The formulation was placed into the chamber and then attached to the skin by an adhesive layer on the covering. This provided a stable measuring device as determined by multiple normal evaluations of the capillary blood flow without treatment of nitric oxide.
A known positive control, methyl nicotinate, was applied to the skin at a concentration of 1/10% in alcohol. […] The vascular dynamics are such that when the blood vessels dilate physical parameters follow Bernoulli's law. This states that as one increases the diameter of a tube containing a liquid to flow will increase but the pressure and the speed of the liquid will decrease. The laser Doppler device accurately measured these parameters.
The test product was labeled as 10,000 ppm NO (nitric oxide). The study participants had 100 mg of the test product applied in a closed Hilltop chamber on the forearm. […]
A Moor Instruments DRT4 Laser Doppler Blood Flow Monitor (Devon, England) was used in these studies. The laser Doppler technique measured blood flow in the microcapillaries of the skin that are close to the skin surface and the blood flow in underlying arterioles and venules that help to regulate skin temperature. […]

OCCCO [1,3-Propanediol, 1,3-propanediol]
% Wt. gain [1]: 0.09% | Wt. Gain [1]: 0.16 g

COC(=O)c1cccnc1 [methyl nicotinate]
vasodilatation versus control untreated skin [2]: vasodilatation was observed | laser Doppler response to positive control [3]: rapid response typical of the vasodilator

Reference: US9844506B2, “Compositions and methods for affecting mood states” (priority 2013, dated 2017)
